The values that follow come from US20220000110A1, “COMPOSITIONS COMPRISING PYRIDINE CARBOXYLATE HERBICIDES AND CELLULOSE BIOSYNTHESIS INHIBITOR HERBICIDES” (priority 2018, published 2022).

The series deals with Triticum aestivum (spring wheat). Format: in vivo. Particulars: TRZAS. From the text: Greenhouse Trial Methodology—Evaluation of Postemergence Herbicidal Effect
Seeds of the desired test plant species were planted in a 90:10% v/v (volume/volume) mixture of PRO-MIX® BX (Premier Tech Horticulture, Quakertown, Pa., USA) and PROFILE® GREENS GRADE™ (Profile Products LLC, Buffalo Grove, Ill., USA) planting mixture, which typically has a pH of 5.2 to 6.2 and an organic matter content of at least 50 percent, in plastic pots with a surface area of 103.2 square centimeters (cm^2). In some aspects, to help ensure good germination and healthy plants, a fungicide treatment and/or other chemical or physical treatment was applied. The plants were grown for 7-36 days (d) in a greenhouse with an approximate 14-hour (h) photoperiod which was maintained at about 23° C. during the day and 22° C. during the night. Nutrients and water were added on a regular basis and supplemental lighting was provided with overhead metal halide 1000-Watt lamps as necessary. The plants were employed for testing when they reached the second or third true leaf stage.
Emulsifiable concentrates of each of each pyridine carboxylate herbicide (Compound A or Compound B) were prepared at 100 grams acid equivalent per liter (g ae/L). The emulsifiable concentrates also included a safener, at 120 grams active ingredient per liter (g ai/L). An aliquot of each emulsifiable concentrate was placed in a 25 mL glass vial and diluted with an aqueous mixture of 1.25% (v/v) ACTIROB® B esterified rapeseed oil (Bayer Crop Science, Research Triangle Park, N.C., USA) or MSO® Concentrate with LECI-TECH® methylated soybean oil (Loveland Products, Loveland, Colo., USA) to obtain concentrated stock solutions at the highest application rate for each herbicide, based upon a 12 milliliter (mL) application volume at a rate of 187 liters per hectare (L/ha). The concentrated stock solutions were further diluted with an aqueous mixture of 1.25% v/v ACTIROB® B or MSO® Concentrate with LECI-TECH® to obtain stock solutions at reduced application rates for each herbicide. Spray solutions of the herbicide combinations (Compound A or Compound B plus the CBI herbicide) were prepared by adding weighed amounts or aliquots of the CBI herbicide to the stock solutions of Compound A or Compound B to form 12-mL spray solutions in two-way combinations.
The spray solutions were applied to the plant material with an overhead Mandel track sprayer equipped with 8002E nozzles calibrated to deliver 187 L/ha over an application area of 0.503 square meters (m^2) at a spray height of 18 inches (43 centimeters (cm)) above the average plant canopy. Control plants were sprayed in the same manner with the solvent blank. All pyridine carboxylate herbicide (component a) application rates are given as “g ae/ha” and all CBI herbicide (component b) application rates are given as “g ai/ha.”
The treated plants and control plants were placed in a greenhouse as described above and watered by sub-irrigation to prevent wash-off of the test compounds. After 20-22 d, the condition of the test plants as compared with that of the control plants was determined visually and scored on a scale of 0 to 100 percent where 0 corresponds to no injury and 100 corresponds to complete kill.

Molecules are shown by their SMILES. Like-named read-outs stand apart in the source and are kept apart here.

Take `N#CCOC(=O)c1nc(-c2ccc3cc[nH]c3c2F)c(F)c(N)c1Cl` [Compound A, cyanomethyl 4-amino-3-chloro-5-fluoro-6-(7-fluoro-1H-indol-6-yl)pyridine-2-carboxylate]: the “Obs % visual injury” value reads like this: (Table 3, Compound A 7.5 g/ha) 3%; (Table 3, Compound A 10 g/ha) 3%; (Table 3, Compound A 15 g/ha) 0%; (Table 4, Compound A 7.5 g/ha) 3%; (Table 4, Compound A 10 g/ha) 3%; (Table 4, Compound A 15 g/ha) 0%.
